Test results published in the supplement of paper PMC11061612.

Assays:
[1] = compound: C1CC(C1)(C(=O)[O-])C(=O)[O-].N.N.[Pt+2] [Carboplatin]; details: max 10 µM
Summary of the method: (§1)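 Cancer cell lines in 1536-well plates (7.5 μl DMEM/F12 or RPMI, 10% FBS) were held 24 hours at 37°C and 5% CO2 and then dosed for 72 hours at a final DMSO of typically 0.2%. Viability was taken from CellTiter-Glo 2.0 luminescence, scaled between blank-well and DMSO-well means. Curves were fitted as two-parameter logistic models with a non-linear mixed effects model, from which the single-agent IC50 was taken.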

[2] = compound: C1CN(CCC1(C(=O)N[C@@H](CCO)C2=CC=C(C=C2)Cl)N)C3=NC=NC4=C3C=CN4 [AZD5363]; details: max 10 µM
Summary of the method: as §1

[3] = compound: C=CCn1c(=O)c2cnc(Nc3ccc(N4CCN(C)CC4)cc3)nc2n1-c1cccc(C(C)(C)O)n1 [AZD1775]; details: max 3 µM
Summary of the method: as §1

[4] = compound: CC(=O)Nc1cccc(-n2c(=O)n(C3CC3)c(=O)c3c(Nc4ccc(I)cc4F)n(C)c(=O)c(C)c32)c1 [Trametinib]; details: max 1 µM
Summary of the method: as §1

[5] = compound: CC(=O)O[C@H]1C(=O)[C@@]2(C)[C@H]([C@H](OC(=O)c3ccccc3)[C@]3(O)C[C@H](OC(=O)[C@H](O)[C@@H](NC(=O)c4ccccc4)c4ccccc4)C(C)=C1C3(C)C)[C@]1(OC(C)=O)CO[C@@H]1C[C@@H]2O [Paclitaxel]; details: max 3 µM
Summary of the method: as §1

[6] = compound: CC(=O)c1c(C)c2cnc(Nc3ccc(N4CCNCC4)cn3)nc2n(C2CCCC2)c1=O [Palbociclib]; details: max 10 µM
Summary of the method: as §1

[7] = compound: CC(C)n1c(=O)n(C)c2cnc3cc(F)c(-c4ccc(OCCCN5CCCCC5)nc4)cc3c21 [AZD1390]; details: max 0.3 µM
Summary of the method: as §1

[8] = compound: CC1(C)CCC(CN2CCN(c3ccc(C(=O)NS(=O)(=O)c4ccc(NCC5CCOCC5)c([N+](=O)[O-])c4)c(Oc4cnc5[nH]ccc5c4)c3)CC2)=C(c2ccc(Cl)cc2)C1 [Venetoclax]; details: max 1 µM
Summary of the method: as §1

[9] = compound: CC1=C(C(=CC=C1)Cl)NC(=O)C2=CN=C(S2)NC3=CC(=NC(=N3)C)N4CCN(CC4)CCO [Dasatinib]; details: max 2 µM
Summary of the method: as §1

[10] = compound: CC1=CN2[C@@H](C1)C=NC3=CC(=C(C=C3C2=O)OC)OCCCCCOC4=C(C=C5C(=C4)N=C[C@@H]6CC(=CN6C5=O)C)OC [SG3199]; details: max 0.001 µM
Summary of the method: as §1

[11] = compound: CCN(CCO)CCCOc1ccc2c(Nc3cc(CC(=O)Nc4cccc(F)c4)[nH]n3)ncnc2c1 [AZD2811]; details: max 1 µM
Summary of the method: as §1

[12] = compound: CCc1c2c(nc3ccc(O)cc13)-c1cc3c(c(=O)n1C2)COC(=O)[C@]3(O)CC [SN-38]; details: max 0.3 µM
Summary of the method: as §1

[13] = compound: CN(C)CCCOc1ccc(-c2ccc3ncc4c(c3c2)n(C2CCOCC2)c(=O)n4C)cn1 [AZD0156]; details: max 3 µM
Summary of the method: as §1

[14] = compound: CN(CC[C@H](CSC1=CC=CC=C1)NC2=C(C=C(C=C2)S(=O)(=O)NC(=O)C3=CC=C(C=C3)N4CCC(CC4)[C@H](C5=CC=CC=C5C6=CC=C(C=C6)Cl)O)S(=O)(=O)C(F)(F)F)CCO [AZD4320]; details: max 1 µM
Summary of the method: as §1

[15] = compound: COc1cc(Nc2ncc3c(n2)-c2ccc(Cl)cc2C(c2c(F)cccc2OC)=NC3)ccc1C(=O)O [Alisertib]; details: max 10 µM
Summary of the method: as §1

[16] = compound: COc1cc([C@@H]2c3cc4c(cc3[C@@H](O[C@@H]3O[C@@H]5CO[C@@H](C)O[C@H]5[C@H](O)[C@H]3O)[C@H]3COC(=O)[C@H]23)OCO4)cc(OC)c1O [Etoposide]; details: max 10 µM
Summary of the method: as §1

[17] = compound: COc1cc2ncnc(Nc3ccc(F)c(Cl)c3)c2cc1OCCCN1CCOCC1 [Gefitinib]; details: max 10 µM
Summary of the method: as §1

[18] = compound: COc1cccc(OCCCN)c1-c1cc(Nc2cnc(C#N)cn2)n[nH]1 [Prexasertib]; details: max 1 µM
Summary of the method: as §1

[19] = compound: COc1cccc2c1C(=O)c1c(O)c3c(c(O)c1C2=O)C[C@@](O)(C(=O)CO)C[C@@H]3O[C@H]1C[C@H](N)[C@H](O)[C@H](C)O1 [Doxorubicin]; details: max 1 µM
Summary of the method: as §1

[20] = compound: COc1nnc2ccc(N3CCC(c4ccc(OCCN5CCN(C)C(=O)[C@H]5C)cc4)CC3)nn12 [AZD5153]; details: max 1 µM
Summary of the method: as §1

[21] = compound: CS(=O)(=O)CCNCc1ccc(-c2ccc3ncnc(Nc4ccc(OCc5cccc(F)c5)c(Cl)c4)c3c2)o1 [Lapatinib]; details: max 10 µM
Summary of the method: as §1

[22] = compound: C[C@@H](Nc1cc(F)cc(F)c1)c1cc(C(=O)N(C)C)cc2c(=O)cc(N3CCOCC3)oc12 [AZD8186]; details: max 10 µM
Summary of the method: as §1

[23] = compound: C[C@@H](Oc1cc(-c2cnn(C3CCNCC3)c2)cnc1N)c1c(Cl)ccc(F)c1Cl [Crizotinib]; details: max 10 µM
Summary of the method: as §1

[24] = compound: C[C@@H](c1ccc2nccn2c1)n1nnc2ncc(-c3cnn(C)c3)nc21 [Savolitinib]; details: max 1 µM
Summary of the method: as §1

[25] = compound: C[C@@H]1COCCN1C2=NC(=NC(=C2)C3(CC3)[S@](=N)(=O)C)C4=C5C=CNC5=NC=C4 [AZD6738]; details: max 10 µM
Summary of the method: as §1

[26] = compound: Cc1c2c(nn1C)CSCc1cc(n(C)n1)CSc1cc(c3ccccc3c1)OCCCc1c(C(=O)O)n(C)c3c-2c(Cl)ccc13 [AZD5991]; details: max 1 µM
Summary of the method: as §1

[27] = compound: Cc1cc2ncnn2cc1Nc1ncc2c(n1)n(C1CCOCC1)c(=O)n2C [AZD7648]; details: max 10 µM
Summary of the method: as §1

[28] = compound: Cc1nc(-c2cn3c(n2)-c2ccc(-c4cnn(C(C)(C)C(N)=O)c4)cc2OCC3)n(C(C)C)n1 [Taselisib]; details: max 10 µM
Summary of the method: as §1

[29] = compound: Cn1cnc2c(F)c(Nc3ccc(Br)cc3Cl)c(C(=O)NOCCO)cc21 [Selumetinib]; details: max 10 µM
Summary of the method: as §1

[30] = compound: N#Cc1cnc(Nc2cc(NC[C@H]3CNCCO3)c(C(F)(F)F)cn2)cn1 [SRA737]; details: max 10 µM
Summary of the method: as §1

[31] = compound: NC1(c2ccc(-c3nc4ccn5c(=O)[nH]nc5c4cc3-c3ccccc3)cc2)CCC1 [MK-2206]; details: max 10 µM
Summary of the method: as §1

[32] = compound: Nc1ccn([C@@H]2O[C@H](CO)[C@@H](O)C2(F)F)c(=O)n1 [Gemcitabine]; details: max 0.3 µM
Summary of the method: as §1

[33] = compound: O=C(Nc1ccc2[nH]nc(-c3ccncc3)c2c1)[C@@H]1CCN(CC(=O)N2CCN(c3ccc(-c4ncccn4)cc3)CC2)C1; details: max 5 µM
Summary of the method: as §1

[34] = compound: O=C(c1cc(Cc2n[nH]c(=O)c3ccccc23)ccc1F)N1CCN(C(=O)C2CC2)CC1 [Olaparib]; details: max 10 µM
Summary of the method: as §1

[35] = compound: O=c1[nH]cc(F)c(=O)[nH]1 [5-Fluorouracil]; details: max 20 µM
Summary of the method: as §1

Cell Line | IC50, cell viability 72 h [1] | IC50, cell viability 72 h [2] | IC50, cell viability 72 h [3] | IC50, cell viability 72 h [4] | IC50, cell viability 72 h [5] | IC50, cell viability 72 h [6] | IC50, cell viability 72 h [7] | IC50, cell viability 72 h [8] | IC50, cell viability 72 h [9] | IC50, cell viability 72 h [10] | IC50, cell viability 72 h [11] | IC50, cell viability 72 h [12] | IC50, cell viability 72 h [13] | IC50, cell viability 72 h [14] | IC50, cell viability 72 h [15] | IC50, cell viability 72 h [16] | IC50, cell viability 72 h [17] | IC50, cell viability 72 h [18] | IC50, cell viability 72 h [19] | IC50, cell viability 72 h [20] | IC50, cell viability 72 h [21] | IC50, cell viability 72 h [22] | IC50, cell viability 72 h [23] | IC50, cell viability 72 h [24] | IC50, cell viability 72 h [25] | IC50, cell viability 72 h [26] | IC50, cell viability 72 h [27] | IC50, cell viability 72 h [28] | IC50, cell viability 72 h [29] | IC50, cell viability 72 h [30] | IC50, cell viability 72 h [31] | IC50, cell viability 72 h [32] | IC50, cell viability 72 h [33] | IC50, cell viability 72 h [34] | IC50, cell viability 72 h [35]
OVMIU (Ovarian Carcinoma) | > 10000 nM | > 10000 nM | 1720 nM | 70 nM | 77.7 nM | > 10000 nM | > 300 nM | > 1000 nM | 209 nM | > 1 nM | > 1000 nM | > 300 nM | > 3000 nM | > 1000 nM | 7010 nM | > 10000 nM | 3200 nM | 267 nM | 801 nM | 302 nM | 3240 nM | > 10000 nM | > 10000 nM | > 1000 nM | > 10000 nM | > 1000 nM | > 10000 nM | 148 nM | > 10000 nM | > 10000 nM | > 10000 nM | > 300 nM | 3190 nM | > 10000 nM | > 20000 nM
PANC-03-27 (Pancreatic Carcinoma) | > 10000 nM | > 10000 nM | 184 nM | 271 nM | 214 nM | > 10000 nM | > 300 nM | > 1000 nM | 1760 nM | > 1 nM | > 1000 nM | 49.8 nM | > 3000 nM | > 1000 nM | > 10000 nM | > 10000 nM | > 10000 nM | 7.87 nM | > 1000 nM | > 1000 nM | > 10000 nM | > 10000 nM | > 10000 nM | > 1000 nM | 2570 nM | > 1000 nM | > 10000 nM | 4600 nM | > 10000 nM | 3400 nM | > 10000 nM | 183 nM | 3080 nM | > 10000 nM | > 20000 nM
PSN1 (Pancreatic Carcinoma) | > 10000 nM | > 10000 nM | 1630 nM | 18.6 nM | 61.9 nM | > 10000 nM | > 300 nM | > 1000 nM | 244 nM | > 1 nM | > 1000 nM | 110 nM | > 3000 nM | > 1000 nM | > 10000 nM | 8600 nM | > 10000 nM | > 1000 nM | > 1000 nM | > 1000 nM | > 10000 nM | > 10000 nM | 7760 nM | > 1000 nM | > 10000 nM | > 1000 nM | > 10000 nM | 5380 nM | 952 nM | > 10000 nM | > 10000 nM | 33.6 nM | 193 nM | > 10000 nM | 7840 nM
